Source: patent publication US9487558B2, “Short bio-active peptides for promoting wound healing” (HELIX BIOMEDIX, INC., priority 2013, dated 2016)
Ends that are not written are not given here. Peptide text beside a SMILES is read from it.

How the values were obtained:
[1] = MTT cytotoxicity on normal human skin keratinocytes; settings: normal human epidermal keratinocytes
Description: (§1) To make sure the peptides are not cytotoxic to the cells, normal human epidermal keratinocytes were seeded to a 96-well plate. The plate was incubated at 37° C. in the presence of 5% CO2 to allow the cells to grow to >95% confluent. Peptides are diluted into stock solutions at concentrations of 50, 100, 200, and 500 μg/ml. The cell culture media are replaced with fresh media containing peptides at various concentrations then incubated at 37° C. and 5% CO2 for 24 hr. At the end of treatment the cell viability was measured using MTT assay kit purchased from ATCC (Manassas Va.).

[2] = in vitro; settings: human, normal human epidermal keratinocytes
Description: as §1

[3] = system: wound repair in a murine model; settings: cited from earlier work

`CC[C@H](C)[C@H](NC(=O)[C@@H](N)CCCCN)C(=O)N[C@@H](CCC(=O)O)C(=O)N[C@@H](CCCCN)C(=O)O` [HB2232, KIEK] (H-KIEK-OH) gave a CC50 at 24 h [1] of over 500 µg/mL.

For `CSCC[C@H](NC(=O)[C@H](CCCCN)NC(=O)[C@@H](N)CCC(=O)O)C(=O)NCC(=O)O` [HB2234, EKMG] (H-EKMG-OH), the CC50 at 24 h [1] was over 500 µg/mL.

Work on `CSCC[C@H](N)C(=O)NCC(=O)N[C@@H](CCCNC(=N)N)C(=O)N[C@@H](CC(N)=O)C(=O)O` [HB2235, MGRN] (H-MGRN-OH) yielded a CC50 at 24 h [1] of over 500 µg/mL.

For `CSCC[C@H](NC(=O)[C@@H](N)CCCCN)C(=O)NCC(=O)O` [HB2268, KMG] (H-Lys-Met-Gly-OH), the CC50 at 24 h [2] was over 500 µg/mL.

Work on `N=C(N)NCCC[C@H](NC(=O)CN)C(=O)N[C@@H](CC(N)=O)C(=O)O` [HB2269, GRN] (H-Gly-Arg-Asn-OH) yielded a CC50 at 24 h [1] of over 500 µg/mL.

Compound EKMGR [HB2263, EKMGR] has a CC50 at 24 h [1] of over 500 µg/mL.

EKMGRN [HB2265, EKMGRN] showed a CC50 at 24 h [1] of over 500 µg/mL.

Work on GRNIRN [HB1062, GRNIRN] yielded a CC50 at 24 h [1] of over 500 µg/mL.

Work on KMGRN [HB2262, KMGRN] yielded a CC50 at 24 h [1] of over 500 µg/mL.

For “MPKEKVFLKIEKMGRNIRN (Peptide HB107) [non-antimicrobial host defense peptide derived from cecropin B]”, the “Benefit in wound repair” value ([3]; murine model, compared with growth factor rhPDGF) is listed as “indistinguishable from the wound treated with growth factor rhPDGF” and the “Epidermal hyperplasia (histological analysis of treated wounds)” value ([3]; murine wounds) is listed as “increased”.
